Source: ChEMBL document CHEMBL1140746, “Cdc7 kinase inhibitors: pyrrolopyridinones as potential antitumor agents. 1. Synthesis and structure-activity relationships” (J Med Chem, 2008)

What was measured:
A2780 = test: Antiproliferative activity against human A2780 cells after 72 hrs; format: functional, cell-based; conditions: A2780, 72 h
[1] = biological target: Cell division cycle 7-related protein kinase (Homo sapiens, UniProt O00311)
Chain of Cell division cycle 7-related protein kinase (O00311 whole entry): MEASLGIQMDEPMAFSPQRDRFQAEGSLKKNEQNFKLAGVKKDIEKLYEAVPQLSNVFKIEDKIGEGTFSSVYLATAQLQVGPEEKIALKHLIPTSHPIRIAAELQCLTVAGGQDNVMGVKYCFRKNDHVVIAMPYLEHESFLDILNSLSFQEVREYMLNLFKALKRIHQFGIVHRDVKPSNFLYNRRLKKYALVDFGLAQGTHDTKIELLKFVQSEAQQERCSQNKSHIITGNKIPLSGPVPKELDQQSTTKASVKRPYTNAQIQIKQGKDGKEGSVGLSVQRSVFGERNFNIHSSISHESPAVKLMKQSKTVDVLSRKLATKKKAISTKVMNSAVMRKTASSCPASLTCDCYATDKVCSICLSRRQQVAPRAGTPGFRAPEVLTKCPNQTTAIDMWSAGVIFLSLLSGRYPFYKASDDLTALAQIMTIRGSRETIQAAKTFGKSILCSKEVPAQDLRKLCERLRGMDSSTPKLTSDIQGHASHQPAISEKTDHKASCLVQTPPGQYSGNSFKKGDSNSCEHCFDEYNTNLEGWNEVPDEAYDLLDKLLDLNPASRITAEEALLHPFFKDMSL

| Compound | IC50 (A2780) [nM] | IC50 [1] [nM] |
| --- | --- | --- |
| O=C1NCCc2[nH]c(-c3ccncn3)cc21 | 5500 | 20 |
| O=C1NCCc2c1cc(-c1ccncc1)n2CC(F)(F)F | – | 160 |
| CCn1c(-c2ccnc(N)n2)cc2c1CCNC2=O | – | 8 |
| O=C1NCCc2[nH]c(-c3ccnc(NCc4ccccc4)n3)cc21 | – | 220 |
| CC(C)C(=O)Nc1nccc(-c2cc3c([nH]2)CCNC3=O)n1 | – | 1400 |
| Nc1nccc(-c2cc3c(n2CC2CC2)CCNC3=O)n1 | – | 4 |
| Nc1nccc(-c2cc3c(n2CCF)CCNC3=O)n1 | – | 3 |
| CC(=O)Nc1nccc(-c2cc3c([nH]2)CCNC3=O)n1 | – | 323 |
| O=C1NCCn2nc(-c3ccncc3)cc21 | – | 210 |
| O=C1NCCc2oc(-c3ccncc3)cc21 | – | 201 |
| O=C1NCc2[nH]c(-c3ccncc3)cc21 | 4700 | 27 |
| O=C1NCCCc2[nH]c(-c3ccncc3)cc21 | – | 158 |
| CCn1c(-c2ccncc2)cc2c1CCNC2=O | – | 67 |
| O=C1NCCc2c1cc(-c1ccncc1)n2CCO | – | 3300 |
| Nc1nccc(-c2cc3c(n2CCO)CCNC3=O)n1 | – | 138 |
| CC(C)n1c(-c2ccnc(N)n2)cc2c1CCNC2=O | – | 42 |
| CCCCn1c(-c2ccnc(N)n2)cc2c1CCNC2=O | – | 23 |
| Nc1nccc(-c2cc3c(n2-c2ccccc2)CCNC3=O)n1 | – | > 5000 |
| Nc1nccc(-c2cc3c(n2Cc2ccccc2)CCNC3=O)n1 | – | 290 |
| CCCNc1nccc(-c2cc3c([nH]2)CCNC3=O)n1 | – | 259 |
| CC(C)CNc1nccc(-c2cc3c([nH]2)CCNC3=O)n1 | – | 636 |
| O=C1NCCc2[nH]c(-c3ccnc(NCC4CCCCC4)n3)cc21 | – | 655 |
| Cn1c(-c2ccncc2)cc2c1CCNC2=O | – | 404 |

| Compound | IC50 (A2780) [nM] | IC50 [1] [nM] |
| --- | --- | --- |
| O=C1NCCc2[nH]c(-c3ccncc3F)cc21 | 200 | 9 |
| O=C1NCCc2[nH]c(-c3ccnc4[nH]ccc34)cc21 | > 10000 | 14 |
| Nc1ncc(Br)c(-c2cc3c([nH]2)CCNC3=O)n1 | 800 | 4 |
| Nc1nccc(-c2c[nH]c3c2C(=O)NCC3)n1 | – | > 5000 |
| O=C1NCCc2[nH]c(-c3ncnc4[nH]cnc34)cc21 | – | 178 |
| O=C1NCCc2[nH]c(-c3ccccc3)cc21 | – | > 5000 |
| O=C1NCCc2[nH]ccc21 | – | > 5000 |
| Nc1cc(-c2cc3c([nH]2)CCNC3=O)ccn1 | > 10000 | 28 |
| O=C1NCCc2[nH]c(-c3cccnc3)cc21 | – | > 5000 |
| Cc1c(-c2ccncc2)[nH]c2c1C(=O)NCC2 | – | 45 |
| O=CN1CCc2[nH]c(-c3ccncc3)cc2C1=O | – | 863 |
| Nc1nccc(-c2cc3c(n2C2CCCCC2)CCNC3=O)n1 | – | > 5000 |
| Cn1c(-c2ccnc(N)n2)cc2c1CCNC2=O | – | 88 |
| CCCn1c(-c2ccnc(N)n2)cc2c1CCNC2=O | – | 12 |
| Nc1nccc(-c2cc3c(n2C2CCC2)CCNC3=O)n1 | – | 14 |
| O=C1NCCc2[nH]c3c(ccc4cnccc43)c21 | 100 | 2 |
| CC(C)Cn1c(-c2ccnc(N)n2)cc2c1CCNC2=O | – | 13 |
| Nc1nccc(-c2cc3c(n2CCCC(F)(F)F)CCNC3=O)n1 | – | 47 |
| CN1CCC(n2c(-c3ccnc(N)n3)cc3c2CCNC3=O)CC1 | – | 120 |
| O=C(Nc1nccc(-c2cc3c([nH]2)CCNC3=O)n1)c1ccccc1 | – | 262 |
| Nc1nccc(-c2cc3c([nH]2)CCNC3=O)n1 | – | 7 |
| Nc1nccc(-c2cc3c(n2CC(F)(F)F)CCNC3=O)n1 | – | 5 |
